Where a name gives a salt, the structure may show the parent alone.
System: Bone marrow precursors
Assay: Development of MDSC from bone marrow precursors cultured in GM-CSF and G-CSF with DOR antagonists
Type: cell-based, mice
Conditions: bone marrow precursors cultured 96 hours in GM-CSF and G-CSF (20 ng/ml each), increasing concentrations of antagonist
Experimental: Next the effect of DOR antagonist on M-MDSC was investigated. Bone marrow precursors were isolated and cultured for 96 hours in GM-CSF and G-CSF (20 ng/ml each) in the presence of increasing concentrations of the DOR antagonists Naltriben mesylate (NTB) or Naltrindole hydrochloride (NTD). Then, we evaluated cell viability by flow cytometry (using DAPI). […] Additionally, the number of M-MDSC (CD11b^+Ly6G^negLy6C^high) and PMN-MDSC (CD11b^+Ly6G^+Ly6C^low) was calculated.
The conjugated antibodies and probes used for flow cytometry are listed in the Key Resources Table. For surface staining, cells were labelled with the appropriate antibodies in the presence of Fc blocker. For intracellular staining, surface-labeled cells were fixed with Cytofix/Cytoperm™ Solution (BD Biosciences), washed in Perm/Wash™ 1×solution, and labelled with intracellular antibodies. Cells were then washed in Perm/Wash™ 1×and PBS. Live vs. dead cell discrimination was performed prior to antibody labeling by Zombie Fixable Viability dye (Biolegend). Ex vivo intracellular staining for IL-12 and TNFα was performed on isolated cells after stimulation for 6 hours with LPS (1 μg/ml, Sigma Aldrich) in the presence of Golgi stop (0.8 μl/ml, BD Biosciences). For IFNγ staining, cells were incubated for 5 hours with phorbol myristate acetate (PMA, 750 ng/mL, Sigma Aldrich) and ionomycin (50 μg/mL, Sigma-Aldrich) in the presence and Golgi stop (0.8 μl/ml). For ER-tracker and Mitotracker staining, cells were probed with 100 nM of ER tracker green or 200 nM of Mitotracker green (Invitrogen) and then stained for surface markers. For Mitochondrial membrane potential, cells were stained with JC-1 flow cytometry assay kit (Cayman chemicals) followed by surface markers staining. ROS were detected by DCFDA (10 μM) or Dihydroethidium (DHE, 10 μM). Data acquisition was performed in a CytoFLEX II (Beckman Coulter) or LSRII (BD Biosciences). All analysis was performed using FlowJo version 11 software.

| Molecule | absolute number of generated MDSC (CD11b+Gr1+) | cell viability by flow cytometry (using DAPI) | number of M-MDSC (CD11b+Ly6GnegLy6Chigh) | number of PMN-MDSC (CD11b+Ly6G+Ly6Clow) |
| --- | --- | --- | --- | --- |
| Oc1ccc2c3c1O[C@H]1c4[nH]c5ccccc5c4C[C@@]4(O)[C@@H](C2)N(CC2CC2)CC[C@]314 [NTD, Naltrindole hydrochloride] | steady decline of MDSC as concentrations increased | strong correlation increasing concentration of either NTD or NTB and cell death | the more significant losses were observed in the M-MDSC subset | declined in number as the concentration of NTD or NTB increased |
| Naltriben mesylate [NTB] | steady decline of MDSC as concentrations increased | strong correlation increasing concentration of either NTD or NTB and cell death | the more significant losses were observed in the M-MDSC subset | declined in number as the concentration of NTD or NTB increased |

Source: patent US20230158016A1, “DELTA OPIOID RECEPTOR ANTAGONISTS REPROGRAM IMMUNOSUPPRESSIVE MICROENVIRONMENT TO BOOST IMMUNOTHERAPY” (H LEE MOFFITT CANCER CENTER AND RESEARCH INSTITUTE, INC., priority 2020, published 2023)
